Experimental data from US20220356452A1, “INDIRECT THREE-DIMENSIONAL CO-CULTURE OF DORMANT TUMOR CELLS AND USES THEREOF” (University of Delaware, priority 2019, published 2022).

What was measured:
Assay type in all cases: cell-based
T47D cells [1] = assay: Quantitative analysis of LC3B+ve puncta cells (autophagy) by immunofluorescent staining in 3D culture; conditions: for autophagy (LC3B+ve puncta cells) with cytokine treatment: T47D in 3D culture, day 15, vs untreated T47D mono-culture
Text: Observations made with the in vitro model system shown here are consistent with in vivo observations in bone in a preclinical model for studying breast cancer dormancy at metastatic sites. a & b, Quantitative analysis of cells positive for LC3B^+ve puncta in images of immunofluorescent staining of autophagic protein (LC3B), cytoplasm (Phalloidin), and DNA (Hoechst) of T47D and BT474 cells in 3D mono-culture or indirect co-culture (#) with different BM niche cells (hFOB or hMSC) analyzed. Induction of autophagy observed in the indirect co-culture condition for T47D or BT474 with hFOB at Day 10 & 15, but not in mono-culture of T47D or co-culture of T47D with hMSC cells. […] In the case of T47D #hMSC insert exchange to #hFOB, induction of autophagy was observed upon insert exchange with similar observations for BT474 cells in these co-cultures. Significant differences assessed by Student's two-sided t-test, where differences shown for comparison between time points in co-culture conditions (*p<0.05, **p<0.01; ***p<0.001). Data are shown represent mean±SD (n=3).
(§1) Significant differences assessed by ANOVA with Tukey's multiple comparisons test, where differences are shown for comparison between controls and multiple conditions at day 15 time point (*p<0.05, **p<0.01; ***p<0.001). Data are shown represent mean±SD (n=3).
Significant differences assessed by one-way ANOVA with Tukey's multiple comparisons test, where differences are shown for comparison between multiple time points (*p<0.05, **p<0.01; ***p<0.001). Data are shown represent mean±SD (n=3).

T47D cells [2] = assay: Quantitative analysis of viable cells (viability/growth) of BCCs in 3D mono-culture or indirect co-culture with hFOB; conditions: T47D in 3D culture treated with recombinant human cytokines, vs untreated T47D mono-culture; day 15
Procedure: Significant differences were assessed by ANOVA with Tukey's multiple comparisons test, where differences are shown for comparison between controls and multiple conditions at day 15 time point (*p<0.05, **p<0.01; ***p<0.001). Data are shown represent mean±SD (n=3).

T47D cells [3] = assay: EdU proliferation assay in 3D mono-culture or indirect co-culture with hFOB; conditions: T47D in 3D culture, day 15, vs untreated T47D mono-culture
Procedure: Indirect co-culture also enables facile switching to elucidate effects of transition from dormancy-promoting to growth-promoting microenvironments. Breast cancer cell proliferation assessment of over time culture with different conditions in 3D hydrogels: 5-ethynyl-2′-deoxyuridine (EdU) proliferation assay was measured for both T47D & BT474 cells at each time point during 15 days of culture. a & b, Quantification of proliferative (EdU^+ve) T47D & BT474 cells alone (control) or in indirect co-culture (#) with different BM niche cells (hFOB or hMSC). […] Significant differences assessed by Student's two-sided t-test, where differences shown for comparison between time points in mono and co-culture conditions (*p<0.05, **p<0.01; ***p<0.001). e, Quantitative analysis of metabolic activity with AlamarBlue assay of T47D cells after insert exchange at day 10 (fold change relative to day 3). Statistical differences determined with ANOVA with Tukey's multiple comparisons test, where differences are shown for comparison between co-culture conditions on day 15 and 20 (*p<0.05, **p<0.01; ***p<0.001). Data are shown represent mean±SD (n=3).
as §1

Molecule | autophagy (LC3B+ve puncta cells) with autophagy inhibitor (T47D cells [1]; T47D #hFOB co-culture, 12.5 pg/mL, 2 doses (Day 6 and Day 14), observation over 25 days) | growth (viable cells) with cytokine treatment (T47D cells [2]) | proliferation rate (EdU+ve cells) with cytokine treatment (T47D cells [3]) | autophagy (LC3B+ve puncta cells) with cytokine treatment (T47D cells [1])
CCN(CCO)CCCC(C)Nc1ccnc2cc(Cl)ccc12 (stereo not shown) [HCQ, hydroxychloroquine, reference compound] | inhibition of autophagy | – | – | –
MCP1: recombinant human MCP1 cytokine | – | significant growth inhibition | significantly decreased the proliferation rate | induced autophagosome formation
TNFa | – | significant growth inhibition | significantly decreased the proliferation rate | induced autophagosome formation
